The values below come from patent US9040712B2, “Thiadiazole analogs thereof and methods for treating SMN-deficiency-related-conditions” (NOVARTIS AG, priority 2013, dated 2015).

The structures appear in SMILES notation.

The subject of the test is SMN protein. The experiment in a line: cellular SMN ELISA (SMN protein elevation). Format: cell-based. To be noted: myoblast cell line derived from SMNdelta7 mouse model; 24 hours compound treatment; concentration range 100 pM-10 uM. The method, then: A cellular SMN ELISA was used to measure the effects of low molecular weight compounds on SMN protein elevation. Cells from a myoblast cell line derived from the SMNdelta7 mouse model (kind gift from Steve Burden, NYU) were seeded into a 384-well plate at a density of 3000 cells/well and treated with compounds for 24 hours. ELISA capture plates were prepared by coating 384-well plates (Immulon 4HBX) with 0.5 ug/mL of anti-SMN mAb (BD Science, Catalog number 610647) at 4° C. overnight. The plates were washed 5 times with 110 uL of PBS-Tween (0.05% Tween-20, PBST), blocked with 100 uL of 1% BSA in PBST for 2 hours and washed (5 times) with 100 uL of PBST. After 24 hours of compound treatment cells were lysed in a modified RIPA-buffer, on ice for 1 hour. 20 uL of lysate and 20 uL of 1% BSA were then added to the ELISA capture plates and incubated at 4° C. overnight. Plates were washed (5 times) with PBST and then incubated with 1:100 dilution of primary rabbit anti-SMN polyclonal antibody (Santa cruz, Catalog number SC-15320) at room temperature for 1 hour and subsequently washed (5 times) with 110 uL of PBST. This was followed by addition of 1:100 Goat anti-Rabbit IgG-HRP linked (Cell Signaling, Catalog number 7074) secondary antibody for 1 hour. Plates were then washed with PBST and incubated with 40 uL TMB substrate (Cell Signaling, Catalog number 7004L) at room temperature for 1-10 minutes with shaking. The reaction was stopped by addition of 40 uL of stop solution (Cell signaling, Catalog number 7002L) and absorption was measured at 450 nm. Data was reported as fold activation over DMSO control and EC50. ELISA assay condition: compound concentration range 100 pM-10 uM.

Broadly, the EC50 is the concentration needed to bring the measured effect to its halfway point. Read a low EC50 as an effect from little substance. Turning to `CN(c1nnc(-c2ccc(-c3ccn(C)c(=O)c3)cc2OC(F)(F)F)s1)C1CC(C)(C)NC(C)(C)C1` [Example 12, 1-Methyl-4-(4-(5-(methyl(2,2,6,6-tetramethyl-piperidin-4-yl)amino)-1,3,4-thiadiazol-2-yl)-3-(trifluoromethoxy)phenyl)pyridin-2(1H)-one], the EC50 came to 895 nM and the “SMN Activity Fold (fold activation over DMSO control)” value (shortened to “SMN Activity Fold”) is 2.20 fold.
On to `COc1cc(-c2c(C)n[nH]c2C)ccc1-c1nnc(N(C)C2CC(C)(C)NC(C)(C)C2)s1` [Example 13, 5-(4-(3,5-Dimethyl-1H-pyrazol-4-yl)-2-methoxy-phenyl)-N-methyl-N-(2,2,6,6-tetramethylpiperidin-4-yl)-1,3,4-thiadiazol-2-amine], for which the “SMN Activity Fold” value was “inactive”.
For `CN(c1nnc(-c2ccc(-c3cnn(C)c3)cc2C(F)(F)F)s1)C1CC(C)(C)NC(C)(C)C1` [Example 14], the “SMN Activity Fold” value is “inactive”.
For the compound `CN(c1nnc(-c2ccc(-c3cnn(C)c3)cc2O)s1)C1CC(C)(C)NC(C)(C)C1` [Example 15, 2-(5-(Methyl(2,2,6,6-tetramethylpiperidin-4-yl)amino)-1,3,4-thiadiazol-2-yl)-5-(1-methyl-1H-pyrazol-4-yl)phenol], the EC50 amounted to 32 nM and the “SMN Activity Fold” value is 3.14 fold.
Regarding `CN(c1nnc(-c2ccc(-c3ccc(=O)n(C)c3)cc2O)s1)C1CC(C)(C)NC(C)(C)C1` [Example 17, 5-(3-Hydroxy-4-(5-(methyl(2,2,6,6-tetramethyl-piperidin-4-yl)amino)-1,3,4-thiadiazol-2-yl)phenyl)-1-methylpyridin-2(1H)-one], the concentration for a half-maximal effect (EC50) amounted to 36 nM and the “SMN Activity Fold” value is given as 2.74 fold.
Consider `CN(c1nnc(-c2ccc(-c3ccn(C)c(=O)c3)cc2O)s1)C1CC(C)(C)NC(C)(C)C1` [Example 18, 4-(3-Hydroxy-4-(5-(methyl(2,2,6,6-tetramethyl-piperidin-4-yl)amino)-1,3,4-thiadiazol-2-yl)phenyl)-1-methylpyridin-2(1H)-one], for which the concentration for a half-maximal effect (EC50) turned out to be 61 nM and the “SMN Activity Fold” value is listed as 3.36 fold.
Turning to `CN(c1nnc(-c2ccc(-c3ccc(O)nc3)cc2O)s1)C1CC(C)(C)NC(C)(C)C1` [Example 19, 5-(3-Hydroxy-4-(5-(methyl(2,2,6,6-tetramethyl-piperidin-4-yl)amino)-1,3,4-thiadiazol-2-yl)phenyl)pyridin-2-ol], the EC50 is 51 nM and the “SMN Activity Fold” value was 2.85 fold.
With `CN(c1nnc(-c2cc3ccc(O)cc3cc2O)s1)C1CC(C)(C)NC(C)(C)C1` [Example 20, 3-(5-(Methyl(2,2,6,6-tetramethylpiperidin-4-yl)amino)-1,3,4-thiadiazol-2-yl)naphthalene-2,7-diol], the half-maximal effective concentration (EC50) came out at 48 nM and the “SMN Activity Fold” value is recorded as 2.63 fold.
Take `Oc1ccc2cc(-c3nnc(N4C[C@H]5CNC[C@H]5C4)s3)c(O)cc2c1` [Example 21, 3-(5-((3aR,6aS)-Hexahydropyrrolo[3,4-c]pyrrol-2(1H)-yl)-1,3,4-thiadiazol-2-yl)naphthalene-2,7-diol]: the EC50 was 323 nM and the “SMN Activity Fold” value was 2.66 fold.
In the case of `CN(c1nnc(-c2cc3ccccc3cc2O)s1)C1CC(C)(C)NC(C)(C)C1` [Example 22, 3-(5-(Methyl(2,2,6,6-tetramethylpiperidin-4-yl)amino)-1,3,4-thiadiazol-2-yl)naphthalen-2-ol.HBr], the EC50 worked out at 253 nM and the “SMN Activity Fold” value is on record as 2.70 fold.
On to `CN(c1nnc(-c2cc3ccccc3nc2O)s1)C1CC(C)(C)NC(C)(C)C1` [Example 23, 3-(5-(Methyl(2,2,6,6-tetramethylpiperidin-4-yl)amino)-1,3,4-thiadiazol-2-yl)quinolin-2-ol], for which the EC50 was determined as 231 nM and the “SMN Activity Fold” value turned out to be 2.66 fold.
